In patent publication US20150191446A1, “SELENO-COMPOUNDS AND THERAPEUTIC USES THEREOF” (THE HEART RESEARCH INSTITUTE LTD, priority 2010, published 2015):

Columns and labels:
[1] = ThioGlo assay, recycling of selenoxides by thiols: glutathione; conditions: GSH samples
Description: (§1) The purpose of these experiments was to determine whether thiols could reduce the selenoxides formed on oxidation of the seleno compounds. The ThioGlo assay was used to monitor the loss of thiol groups upon addition of selenoxides as this agent produces a fluorescent product in the presence of reduced thiols.
(§2) The ThioGlo reagent was prepared by diluting 30 μL of a stock solution (5 mg in 5.070 mL acetonitrile) in 2970 μL of 0.1 M pH 7.4 phosphate buffer. Preparation of the developing reagent was performed immediately prior to addition to standards or samples. Standard curves were prepared by addition of varying volumes, between 0 and 50 μL, of 10 μM GSH solution to wells in a 96-well plate. The volume in each well was made up to 50 μL with 0.1 M pH 7.4 phosphate buffer. 50 μL of ThioGlo•reagent was added to each standard, and incubated in the dark for 5 minutes. The fluorescence was measured using a PerSeptive Biosystems CytoFluor II fluorescence multi-well plate reader with λex=360 nm λem=530 nm. Standards using 10 μM Cys and 2 mg/mL BSA were produced in the same method.
(§3) Solutions of 8 μM SeMetO were produced by mixing 20 μM SeMet and 16 μM HOCl together, and incubating for 30 minutes. […] The fluorescence was measured using the PerSeptive Biosystems CytoFluor II fluorescence multi-well plate reader with λex=360 nm λem=530 nm. […]

bovine serum albumin = bovine serum albumin (Bos taurus, UniProt P02769); assay: ThioGlo assay, recycling of selenoxides by thiols: bovine serum albumin; conditions: thiol group on bovine serum albumin
Sequence of bovine serum albumin (P02769 25-607): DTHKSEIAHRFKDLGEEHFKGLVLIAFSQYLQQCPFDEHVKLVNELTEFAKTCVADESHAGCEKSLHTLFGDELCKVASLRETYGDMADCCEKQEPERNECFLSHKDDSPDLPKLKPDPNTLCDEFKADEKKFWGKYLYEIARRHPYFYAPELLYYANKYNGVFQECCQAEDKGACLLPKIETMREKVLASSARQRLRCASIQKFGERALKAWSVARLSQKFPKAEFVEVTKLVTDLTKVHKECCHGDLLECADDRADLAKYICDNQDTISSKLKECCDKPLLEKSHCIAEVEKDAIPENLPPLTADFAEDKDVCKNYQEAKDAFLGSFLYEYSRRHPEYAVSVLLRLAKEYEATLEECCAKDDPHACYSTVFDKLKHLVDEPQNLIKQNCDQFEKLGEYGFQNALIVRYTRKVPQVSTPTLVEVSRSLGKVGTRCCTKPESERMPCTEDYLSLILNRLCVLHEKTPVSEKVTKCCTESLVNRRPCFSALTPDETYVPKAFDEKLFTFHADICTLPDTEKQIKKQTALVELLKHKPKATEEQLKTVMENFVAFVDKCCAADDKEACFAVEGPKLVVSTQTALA
Description: as §1, §2, §3

[2] = ThioGlo assay, recycling of selenoxides by thiols: cysteine; conditions: Cys samples
Description: as §1, §2, §3

[3] = test system: wounds in wildtype C57/BL6 mice; assay: Circular incision wound model, topical treatment, wildtype mice; type: in vivo, mouse; conditions: for wound healing (appearance) / pus formation in wound: topical; for wound healing (appearance): FIG. 25, 26
Description: In the experimental testing according to the present invention, pairs of circular incision wounds on the backs of wildtype C57/BL6 and db−/db− mice (n=12 each) were treated daily with a seleno-compound according to the current invention or vehicle, topically for 10 days. Wound closure, vascular perfusion and tissue histology were assessed.

BSA = assay: 3-chlorotyrosine formation by HOCl in BSA (LCMS); type: biochemical, bovine; conditions: FIG. 5A
Description: (§4) Varying concentrations of Se-sugars (1.0 mM-0.05 mM) were added to solutions containing 0.1 mg·mL^−1 of protein (BSA or Plasma).
(§5) 150 μL of each sample (Se1HSA1—Control) were added to 50 μL of 3 mM HOCl. Samples, with a final volume of 200 μL, were placed in a glass vial (8×40 mm, 1 mL, No. 98212, Alltech) labeled by etching with a diamond tipped pen or engraver. Proteins (0.1 mg in 200 μL) were delipidated and precipitated by the addition of 25 μL 0.3% (w/v) deoxycholic acid and 50 μL of 50% (w/v) TCA, with incubation on ice for 5 min. The glass vials containing samples were placed in 1.5 mL centrifuge tubes for 2 minutes at 9000 rpm at 5° C. (Eppendorf 5415R centrifuge) to pellet protein. Protein pellets were washed once with 5% (w/v) TCA, and twice with ice cold acetone (stored in […]) with 2 min, 9000 rpm, spins between washes in each case to settle pellets. The samples were then transferred to PicoTag hydrolysis vessels before the addition of 150 μL of 6 M HCl and 50 μL of thioglycolic acid into the PicoTag vessel and placed under vacuum in the oven at 110° C. for 16-18 hours. The PicoTag vessels were removed from oven and allowed to cool before releasing vacuum. […]
(§6) L-Tyrosine, 3-chlorotyrosine and di-tyrosine were analysed by LC-MS in the positive ion mode with a Finigan LCQ Deca XP ion-trap instrument coupled to a Finigan surveyor HPLC system. […]

human plasma = assay: 3-chlorotyrosine formation by HOCl in human plasma (LCMS); type: biochemical; conditions: FIG. 5B
Description: as §4, §5, §6

Compound | amount of thiols after selenoxide addition [1] | reduction of selenoxide by thiol group (bovine serum albumin) | amount of thiols after selenoxide addition [2] | wound healing (appearance) ([3]; same dose) | further results
O=[Se]1C[C@@H](O)[C@@H](O)[C@@H]1[C@H](O)CO (stereo partly drawn) [SeTalO] | dose dependent decreases | less marked | dose dependent decreases | – | –
OC[C@@H](O)[C@@H]1[Se]C[C@@H](O)[C@H]1O [compound 38, 1,4.-Anhydro-4-seleno-D-talitol] | – | – | – | improved wound closure and healing | –
OCC1[Se]CC(O)C(O)[C@@H]1O (stereo partly drawn) [compound 4, 1,5-Anhydro-5-seleno-L-gulitol] | – | – | – | – | 3-chloro-tyrosine formation by HOCl (BSA): effectively preventing; 3-chloro-tyrosine formation by HOCl (human plasma): effectively preventing
C[Se](=O)CC[C@H](N)C(=O)O (stereo partly drawn) [SeMetO, selenomethionine oxide] | dose dependent decreases | less marked | dose dependent decreases | – | –
O[C@@H]1C[Se]C[C@H]1O (racemic) [DHSred, DL-trans-3,4,-Dihydroxy-L-selenolane] | – | – | – | inferior healing | inflammatory response during wound healing ([3]; FIG. 25): resulted in an inflammatory response; pus formation in wound ([3]; same dose, FIG. 25): development of pus; wound healing (appearance) ([3]; same dose, listed as DL-trans-3,4,-Dihydroxy-L-selenolane): reduced wound healing; pus formation in wound ([3]; same dose, FIG. 25, listed as DL-trans-3,4,-Dihydroxy-L-selenolane): observable pus formation; scar tissue formed during wound healing ([3]; wildtype mice, same dose, FIG. 26): pronounced scar tissue build up
